# Laboratory results published in patent publication US12616684B2, “Pulmonary fibrosis medicine containing pyrazole derivative” (priority 2020, dated 2026).
# Structures can show the parent of a compound that is named as a salt. Where two headings read alike, the source gives them in different places.
# Columns and labels:
# [1] = Toxicity to Calu-3 human lung epithelial cells; assay type: cell-based; conditions: Calu-3 cells, read-out: CC50 (50% cytotoxic concentration)
# Procedure: In order to analyze the antiviral activity of the compounds of the synthetic examples, real-time qRT-PCR (quantitative RT-PCR) was perfumed using severe acute respiratory syndrome coronavirus 2 (SARS-CoV2) and Calu-3 cells, which are human lung epithelial cells. Human lung epithelial cells (Calu-3) were cultured in Dulbecco's Modified Eagle Medium (DMEM) at 37° C. under 5% CO2. The concentration of Compound 1 was 15, 12.5, 6.25, 3.125, 1.563, 0.781, 0.391, 0.195, 0.098, 0.049, 0.024, 0.012 μM. Antiviral efficacy (IC50; 50% inhibition concentration) and toxicity to the cells (CC50; 50% cytotoxic concentration) according to drug concentration were measured at 24 hours and 48 hours after treatment on the cells by concentration, and are shown in Table 1 and FIG. 10.
# [2] = test system: C57BL/6J mice with bleomycin-induced pulmonary fibrosis; assay: Mouse model with bleomycin-induced pulmonary fibrosis; assay type: in vivo; conditions: for improved (modified) Ashcroft score: oral once a day for 28 days, Compound 1 60 mg/kg, nintedanib 100 mg/kg, BLM group 5.5±0.8, mean and standard deviation, FIG. 9
# Procedure: For the mouse model with bleomycin-induced pulmonary fibrosis, C57BL/6J male mice aged 5 weeks and before and after body weight of 20 g were used. C57BL/6J mice were anesthetized by intraperitoneally injection of pentobarbital (40 mg/kg), the skin of the anterior neck or midline was incised, the trachea was exposed with a self-retaining retractor, and then a micro syringe was inserted from the occipital side to the lungs to slowly administer bleomycin (2 mg/kg) while checking the state of respiration. Immediately after injection, the skin of the incised anterior neck or midline was sutured, and then they were bred in a sterile animal room at constant temperature (22-26° C.) and constant humidity (55-60%). By this method, remarkable fibrosis occurred in the lungs, usually after 3 weeks of treatment. Experimental animals were 7 animals in each group, and the experiment was conducted by dividing them into the following groups: a control group (Control) orally administered with distilled water, a group (BLM) with bleomycin-induced pulmonary fibrosis, an experimental group as a positive control group (BLM+Nintedanib) orally administered with 100 mg/kg of nintedanib daily 3 weeks after administration of bleomycin, and an experimental group (BLM+Compound 1) orally administered with 60 mg/kg of Compound 1 daily 3 weeks after administration of bleomycin. Nintedanib and Compound 1 were orally administered once a day for 28 days. On the day after the last administration of nintedanib or compound 1, each animal was anesthetized, and then was bled by cardiac puncture and sacrificed. Lung tissues were enucleated from all animals for histopathological examination. The enucleated lung tissue was fixed in 10% neutral buffered formalin (NBF). The fixed lung tissue was embedded in paraffin and sliced to a thickness of 4 μm to prepare a tissue slide. The tissue slides were subjected to hematoxylin & eosin (H&E) staining, which is cell staining, and Masson's trichrome (MT) staining to confirm fibrosis. Histopathological examination of the prepared tissue slides was confirmed using an optical microscope (Carl Zeiss, Oberkochen, Germany). The severity of fibrosis was assessed using the modified Ashcroft scale, which is a semi-quantitative histopathological scoring. For immunohistochemical staining, the tissue slides prepared above were de-paraffinized, and then rabbit anti-α-smooth muscle actin (SMA) antibody or rabbit anti-collagen type I antibody was used as a primary antibody. And, Vectastatin ABC kit (Vector Laboratories, Inc, Burlingame, CA) was used to confirm the expression of the antigen reacted with each antibody. […] When reading the staining result, if the cytoplasm is colored reddish-brown in whole or in part, it is considered that there is an immune reaction, and thus, it is read as positive. From the experimental results, the mean and standard deviation were obtained using the SPSS ver. 22.0 statistical program (SPSS Inc., Chicago, IL, USA), and the significance of the difference between the experimental groups was verified at p<0.05 level by the student t-test.
# [3] = test system: severe acute respiratory syndrome coronavirus 2 (SARS-CoV2); assay: Antiviral activity against SARS-CoV2 in Calu-3 cells, real-time qRT-PCR; assay type: cell-based; conditions: for IC50: Severe acute respiratory syndrome coronavirus 2, SARS-CoV2 in Calu-3 cells, read-out: IC50 (50% inhibition concentration), antiviral efficacy
# [4] = test system: normal human lung fibroblasts (NHLFs); assay: TGF-β1-induced αSMA and collagen type I expression (myofibroblast differentiation), immunocytochemistry; assay type: cell-based; conditions: 10 ng/ml TGF-β1 72 hours, 2 mM Compound 1 pre-treated 1 hour
# Procedure: In order to analyze the effect of Compound 1 on the differentiation of lung fibroblasts into myofibroblasts, the inhibitory effect of Compound 1 on the increase in the expression of TGF-β1-induced α-smooth muscle actin (αSMA) and collagen type I (collagen I) in normal human lung fibroblasts (NHLFs, Lonza) was observed. NHLF cells were suspended in culture medium (FGM-2 Bulletkit media, Lonza) and inoculated at a concentration of 1×10^4 cells/well on a 4-well chamber slide (Nunc). After 24 hours of culture in a CO2 incubator, the medium was replaced with a serum-free medium and further cultured for 12 hours. Thereafter, vehicle and 2 mM Compound 1 were pre-treated in the corresponding wells for 1 hour, and then 10 ng/ml of TGF-β1 was treated in each well except for the negative control (vehicle group) for 72 hours. Confirmation of the expression of αSMA and collagen I in the prepared cells was performed through immunocytochemistry as follows. Cells were fixed in 4% paraformaldehyde for 10 minutes and permeated using 0.1% Triton X-100, and primary antibody (anti-αSMA Ab, 1:200; anti-collagen I Ab, 1:500, reacted for 3 hours at room temperature) and secondary antibody (ALEXA™-594 conjugated Ab, 1:1000, reacted for 1 hour at room temperature) treatment process was sequentially performed, and then the expression of αSMA and collagen I was observed using a fluorescence microscope. […]
# IL-1β = assay: LPS-induced IL-1β expression in normal human lung fibroblasts, RT-PCR; assay type: cell-based; conditions: NHLFs, pre-treated 30 minutes, LPS 6 hours, FIG. 4
# [5] = test system: normal human lung fibroblasts (NHLFs); assay: PMA stimulation-induced reactive oxygen species generation in normal human lung fibroblasts; assay type: cell-based; conditions: FIG. 1
# Source text: In order to confirm the effect of the compounds of the synthetic examples on the generation of reactive oxygen species from lung fibroblasts, the generation of reactive oxygen species was induced through PMA stimulation in normal human lung fibroblasts (NHLFs, Lonza), and the inhibitory effect of Compound 1 on the generation of reactive oxygen species was observed under this condition. Each cell was suspended in a culture medium containing 10% FBS, seeded in a 96-well plate, and cultured for 24 hours under conditions of 5% CO2 and 37° C. After pre-treating Compound 1 for 30 minutes to 1 hour, TGF-β1 or phorbol 12-myristate 13-acetate (PMA) stimulation was applied to each well including cells and drugs.
# [6] = 60 mg/kg oral once a day for 28 days, FIG. 5
SMILES,CC50 at 24 h ([1]; 24 hours after treatment) [µM],CC50 at 48 h ([1]; 48 hours after treatment) [µM],"deformation of the lung structure (H&E staining) [2, 6]","hypertrophic epithelial cells (H&E staining) [2, 6]","site of abnormal tissue deposition (H&E staining) [2, 6]","degree of infiltration of inflammatory cells into the alveolus and bronchiole (H&E staining) ([2]; 60 mg/kg oral once a day for 28 days, compared with BLM and BLM+Nintedanib groups, FIG. 5)","size of the fibrosis area and deposition of collagen due to fibrosis (Masson's trichrome staining) ([2]; 60 mg/kg oral once a day for 28 days, compared with BLM and BLM+Nintedanib groups, FIG. 6)","expression of α-SMA in lung tissue (immunohistochemical staining) ([2]; 60 mg/kg oral once a day for 28 days, compared with BLM and BLM+Nintedanib groups, FIG. 7)","expression of collagen type I (collagen I) in lung tissue (immunohistochemical staining) ([2]; 60 mg/kg oral once a day for 28 days, compared with BLM and BLM+Nintedanib groups, FIG. 8)",improved (modified) Ashcroft score [2],"SI ([3]; CC50/IC50, 24 hours)","SI ([3]; CC50/IC50, 48 hours)",IC50 ([3]; 24 hours after treatment) [µM],IC50 ([3]; 48 hours after treatment) [µM],increase in the expression of αSMA ([4]; FIG. 2),increase in the expression of collagen I ([4]; FIG. 3),LPS-induced IL-1β expression (IL-1β),generation of PMA stimulation-induced reactive oxygen species [5]
"CCCc1c(-c2ccccc2)nn(-c2ccccn2)c1O [Compound 1, 3-phenyl-4-propyl-1-(pyridin-2-yl)-1H-pyrazol-5-ol hydrochloride]",435,164,reduced,decreased,reduced,significantly lower than that of the experimental group and the positive control group,remarkably reduced,reduced,remarkably reduced,4.0±1.1,13.80,98.50,31.5,1.67,remarkably inhibited,remarkably inhibited,effectively inhibited in a concentration-dependent manner,inhibited in a concentration-dependent manner
"COC(=O)c1ccc2c(c1)NC(=O)/C2=C(\Nc1ccc(N(C)C(=O)CN2CCN(C)CC2)cc1)c1ccccc1 [nintedanib, reference compound]",–,–,–,–,–,–,–,–,–,5.2±0.45,–,–,–,–,–,–,–,–
